Test results published in publication PMC4623604, “Discovery of Small Molecules that Inhibit the Disordered Protein, p27^Kip1” (Scientific Reports, 2015).

How the values were obtained:
p27-KID [1] = biological target: T1, p27-KID (Homo sapiens, UniProt P46527); test: NMR 2D 1H-15N in-phase HSQC titration, binding affinity for p27:small molecule interactions; details: sixteen-point titration, 100 μM 15N-p27-KID, inhibitor 0-3 mM
T1 construct: 6xHis (N, cleaved yes); made in house; host or cells: E. coli (pET28a)
Procedure: 1D and 2D NMR analysis of these molecules led to the identification of 15 additional p27-D2-binding compounds (six with Group 1-like binding features and nine with Group 2-like features; Suppl. Fig. 3b and Suppl. Table 1b).
Sixteen point titrations of representative fragment hits from Group 1 and Group 2 (SJ572710 and SJ572403, respectively) into ^15N-p27-KID (100 μM) were recorded using an adopted “in-phase” 2D ^1H-^15N HISQC with proton decoupling during ^15N chemical shift labeling achieved with a WALTZ16 composite pulse with an amplitude of 7.1 kHz[54][55]. All experiments were collected at a Bruker Avance 800 MHz spectrometer equipped with TCI cryogenic gradient probe. The following molar ratios of ^15N-p27-KID (100 μM) to inhibitor were used: 1:0, 1:0.1, 1:1.5, 1:3, 1:4.5, 1:6, 1:7.5, 1:9, 1:10.5, 1:12, 1:15, 1:18, 1:21, 1:24, 1:27 and 1:30. Each spectrum was recorded with 256 (t1,max = 31.0 ms) and 1024 (t2,max = 106.5 ms) complex points in the ^15N and ^1H dimensions, respectively, with eight transients collected per point. The spectral resolution of the ^1H and ^15N dimensions was 2.4 and 1.7 Hz, respectively. […] The data was processed using the NMRPipe package[56] and analyzed using in-house scripts written in Python using the Scipy computing libraries and Mathematica (Wolfram Research). […]

p21-KID = biological target: T2, p21-KID (Homo sapiens, UniProt P38936); test: 2D 1H-15N HSQC NMR with p21-KID; type: binding; details: 1 mM compound, 20 μM p21-KID, 298 K
T2 construct: made in house
Procedure: Figure 8 Interaction of p21-KID with representative p27 fragment hits.
Screening and validation NMR experiments were performed at 298 K (25 °C) using either a Varian Inova 600 MHz spectrometer equipped with a triple resonance (HCN) room temperature gradient probe or a Bruker Avance 600 MHz spectrometer equipped with TCI cryogenic gradient probe and a SampleJet sample changer. Fragment molecules were initially analyzed as pools of five molecules dissolved at 10 mM each in DMSO-D6. […] For initial fragment screening experiments, one-dimensional (1D) ^1H- and WaterLOGSY[35] NMR spectra were recorded for compound pools without and with protein. […] DMSO-D6 was added to maintain a constant concentration (2% vol/vol). […] Tryptophan and tyrosine, respectively, were titrated into ^15N-p27-KID (100 μM) up to 3 mM. […] 2D ^1H-^15N TROSY-HSQC NMR experiments with ^2H/^13C/^15N-p27-D2/Cdk2/cyclin A and SJ403 have been recorded at 308 K (35 °C). 2D ^1H-^15N HSQC experiments of representative fragment hits (1 mM of SJ319843, group 1 and SJ403, group 2, respectively) with ^15N-p21-KID (20 μM) were recorded at 298 K using a Bruker Avance 600 MHz spectrometer. NMR spectra were processed using Bruker Topspin software and analyzed using computer-aided resonance assignment (CARA) software.

p27-KID [2] = biological target: T1, p27-KID; test: NMR fragment screening and 2D 1H-15N HSQC chemical shift perturbation mapping; type: binding; parameters: key to Binding Group (site of chemical shift perturbations in p27-KID): Molecules in Group 1 bound to a localized region, F87YY89; molecules in Group 2 bound to this region as well as two others containing two W residues (W60 and W76); details: 2D 1H-15N HSQC, 100 μM 15N-p27-KID
Text: We used one-dimensional (1D) ^1H WaterLOGSY[35] and STD[36] […] Fragment molecules were selected from either a commercial library (1,100 compounds from the Ro3 collection, Maybridge/Thermo Fisher Scientific) or an in-house library of 1,222 compounds based on the “Rule of Three”[40] and other criteria (see Methods). […] Binding sites for these compounds were identified by titration into ^15N-p27-KID and analysis of two-dimensional (2D) ^1H-^15N HSQC spectra. […] We termed these molecules Groups 1 and 2, respectively (Fig. 1b,c); representative ^1H CSP histograms are shown in Fig. 1d,e, and ^15N CSPs are presented in Suppl. Fig. 2. Data for all other small molecules are shown in Suppl. Fig. 3.
Screening and validation NMR experiments were performed at 298 K (25 °C) using either a Varian Inova 600 MHz spectrometer equipped with a triple resonance (HCN) room temperature gradient probe or a Bruker Avance 600 MHz spectrometer equipped with TCI cryogenic gradient probe and a SampleJet sample changer. Fragment molecules were initially analyzed as pools of five molecules dissolved at 10 mM each in DMSO-D6. […] For initial fragment screening experiments, one-dimensional (1D) ^1H- and WaterLOGSY[35] NMR spectra were recorded for compound pools without and with protein. […] DMSO-D6 was added to maintain a constant concentration (2% vol/vol). […] Tryptophan and tyrosine, respectively, were titrated into ^15N-p27-KID (100 μM) up to 3 mM. Three-dimensional (3D) backbone triple-resonance experiments to establish resonance assignments for the p27 constructs were performed using the Bruker Avance 600 MHz spectrometer. […] Fig. 12b,c and d,e, respectively. 2D ^1H-^15N TROSY-HSQC NMR experiments with ^2H/^13C/^15N-p27-D2/Cdk2/cyclin A and SJ403 have been recorded at 308 K (35 °C). 2D ^1H-^15N HSQC experiments of representative fragment hits (1 mM of SJ319843, group 1 and SJ403, group 2, respectively) with ^15N-p21-KID (20 μM) were recorded at 298 K using a Bruker Avance 600 MHz spectrometer. NMR spectra were processed using Bruker Topspin software and analyzed using computer-aided resonance assignment (CARA) software.
Chemical shift perturbations are generally quantified as combined ^1H and ^15N chemical shift values. […] Thus, the use of a combined chemical shift values would mask the effects of compound binding. […] Thus, the assessment of statistical significance was based upon whether a particular CSP value was larger than, i) the experimental spectral resolution in the given dimension (^1H or ^15N) and ii) the quantity, Δδave + 2σ, for that dimension.

T1 sequence (P46527 22-105): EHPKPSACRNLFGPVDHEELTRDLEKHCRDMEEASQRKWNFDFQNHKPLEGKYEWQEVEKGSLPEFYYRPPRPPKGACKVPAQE
T2 sequence (P38936 9-84 limits assumed): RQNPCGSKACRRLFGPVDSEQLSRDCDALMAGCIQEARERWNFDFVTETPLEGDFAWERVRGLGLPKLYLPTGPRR

Question: Which Kd (p27-KID [1]) does the source give for `CCn1c(C)c(C)n2c3c(=O)n(C)c(=O)n(C)c3nc12` [SJ403] here?
Answer: 2200 ± 300 µM

Question: And the “interaction with p21-KID (1H chemical shift perturbations)” value (p21-KID)?
Answer: interacted with residues near W49 and W65 of p21

Question: What about the “Binding Group (site of chemical shift perturbations in p27-KID)” value (p27-KID [2]) of the same compound?
Answer: Group 2
